This note sets out measurements from patent US11883458B2, “Herb medicine composition for alleviating or treating asthma, and oriental pharmacopuncture solution containing same and injection containing same” (priority 2019, dated 2024).

The structures appear in SMILES notation.

For the experiment, the system named is asthma-induced BALB/c mice (ovalbumin). Put plainly: Ovalbumin-induced asthma in BALB/c mice: white blood cell, eosinophil and IgE measurement. Conditions: asthma-induced female BALB/c mice; injected twice a week for 4 weeks; mean of 3 mice; mouse blood. It is filed as in vivo. The method, then: Ovalbumin was administered to BALB/c mice to induce asthma. The total white blood cell (WBC) count, eosinophil count, and […] in bronchoalveolar lavage fluid (BALF) were measured.
As experimental animals, BALB/c mice (supplier: Samtako Korea), which have been widely used in asthma tests, were used. Female BALB/c mice were used and were 6 weeks old at the time of acquisition and 7 weeks old at the time of the experiment. After acquisition, the mice were acclimatized in an animal test room for 6 days, and observed at least once a day. During the acclimatization period, the mice were distinguished by skin mark using a red oil magic pen. During the administration and observation period, the mice were distinguished by skin mark using a black oil magic pen. An individual identification card was attached to a breeding cage. The mice were housed in a breeding area under the condition of a temperature of 23±3° C., a relative humidity of 55±15%, a ventilation frequency of 10 to 20 times/hr, an illumination time of 12 hours, and an illuminance of 150 to 300 Lux. During the period of acclimatization and administration, at least four mice were housed in each polycarbonate breeding cage containing an appropriate amount of rug. During the acclimatization period, mice determined to be healthy were weighed and ranked according to weight. The mice were distributed into groups so that the mean weights of each group were equal.
As an asthma inducer, refrigerated ovalbumin (OVA) (catalog No.: A5503, supplier: Sigma Aldrich, Louis, Missouri, USA) was used. As an adjuvant, refrigerated aluminum hydroxide (Alum) (catalog No.: 77161, supplier: Thermo Fisher Scientific Inc, Waltham, Massachussets, USA) was used. […]
After 4 weeks, the measurement of the white blood cell (WBC) count, eosinophil count, and IgE was performed using mouse blood. The mean values thereof were calculated, and the results are illustrated in Table 3 below.

Consider `C[C@@H]1C[C@H]2[C@@H]3CCC4=CC(=O)C=C[C@]4(C)[C@@]3(F)[C@@H](O)C[C@]2(C)[C@@]1(O)C(=O)CO` [Positive control, dexamethasone], for which the Eosinophil count was 1.41 X10^2 cells/μl, the IgE worked out at 23.45 µg/mL and the WBC count was 39.83 X10^3 cells/μl.
